# Experimental data: ChEMBL document CHEMBL3808333, “Design, synthesis and anticonvulsant activity of new hybrid compounds derived from N-phenyl-2-(2,5-dioxopyrrolidin-1-yl)-propanamides and -butanamides” (Bioorg Med Chem, 2016)
# Calls of active or inactive are those of the source. The calls are words filed in the database; no cut-off is given here.
# Legend:
# Rattus norvegicus [1] = species: Rattus norvegicus; assay: Displacement of [125I]omega-Conotoxin GVIA from N-type calcium channel in rat cerebral cortex synaptoneurosomes at 100 uM measured after 30 mins by scintillation counting method; format: tissue-based
# [2] = Acute neurotoxicity in albino Swiss mouse pretreated for 2 hrs by rotorod test; format: toxicity, organism-based; details: in vivo
# Rattus norvegicus [3] = species: Rattus norvegicus; assay: Displacement of [125I]omega-Conotoxin GVIA from N-type calcium channel in rat cerebral cortex synaptoneurosomes at 200 uM measured after 30 mins by scintillation counting method; format: tissue-based
# [4] = Protective index, ratio of TD50 for acute neurotoxicity in albino Swiss mouse to ED50 for anticonvulsant activity in albino Swiss mouse by maximal electroshock seizure test; format: toxicity, organism-based; details: in vivo, read-out: Ratio TD50/ED50
# Mus musculus [5] = assay: Anticonvulsant activity in albino Swiss mouse assessed as reduction in clonic seizures pretreated for 2 hrs at 100 mg/kg, ip measured after 30 mins by subcutaneous pentylenetetrazole seizure test; format: functional, organism-based
# [6] = Protective index, ratio of TD50 for acute neurotoxicity in albino Swiss mouse to ED50 for anticonvulsant activity in albino Swiss mouse by 6Hz psychomotor seizure test; format: toxicity, organism-based; details: in vivo, read-out: Ratio TD50/ED50
# Mus musculus [7] = assay: Anticonvulsant activity in albino Swiss mouse assessed as protection against maximal electroshock-induced seizures pretreated for 0.5 hrs at 100 mg/kg, ip by maximal electroshock seizure test; format: functional
# Rattus norvegicus [8] = species: Rattus norvegicus; assay: Displacement of [3H]Batrachotoxinin from voltage-sensitive sodium channel site 2 in rat cerebral cortex synaptoneurosomes at 100 uM measured after 60 mins by scintillation counting method; format: tissue-based
# Mus musculus [9] = species: Mus musculus; assay: Anticonvulsant activity in albino Swiss mouse by maximal electroshock seizure test; format: functional
# Rattus norvegicus [10] = species: Rattus norvegicus; assay: Displacement of [3H]diltiazem from L-type calcium channel diltiazem binding site in rat cerebral cortex synaptoneurosomes at 100 uM measured after 120 mins by scintillation counting method; format: tissue-based
# Rattus norvegicus [11] = species: Rattus norvegicus; assay: Displacement of [3H]D888 from L-type calcium channel verapamil binding site in rat cerebral cortex synaptoneurosomes at 200 uM measured after 120 mins by scintillation counting method; format: tissue-based
# Mus musculus [12] = assay: Anticonvulsant activity in albino Swiss mouse assessed as reduction in clonic seizures pretreated for 0.5 hrs at 100 mg/kg, ip measured after 30 mins by subcutaneous pentylenetetrazole seizure test; format: functional
# Rattus norvegicus [13] = species: Rattus norvegicus; assay: Displacement of [3H]Batrachotoxinin from voltage-sensitive sodium channel site 2 in rat cerebral cortex synaptoneurosomes at 200 uM measured after 60 mins by scintillation counting method; format: tissue-based
# Mus musculus [14] = assay: Anticonvulsant activity in albino Swiss mouse measured after 30 mins by subcutaneous pentylenetetrazole seizure test; format: functional; details: sc, 0.5 h
# Mus musculus [15] = assay: Anticonvulsant activity against albino Swiss mouse seizure model assessed as time to peak effect at 100 mg/kg, ip; format: functional
# Rattus norvegicus [16] = species: Rattus norvegicus; assay: Displacement of [3H]D888 from L-type calcium channel verapamil binding site in rat cerebral cortex synaptoneurosomes at 100 uM measured after 120 mins by scintillation counting method; format: tissue-based
# Rattus norvegicus [17] = species: Rattus norvegicus; assay: Displacement of [3H]diltiazem from L-type calcium channel diltiazem binding site in rat cerebral cortex synaptoneurosomes at 200 uM measured after 120 mins by scintillation counting method; format: tissue-based
# [18] = Protective index, ratio of TD50 for acute neurotoxicity in albino Swiss mouse to ED50 for anticonvulsant activity in albino Swiss mouse by subcutaneous pentylenetetrazole seizure test; format: toxicity, organism-based; details: in vivo, read-out: Ratio TD50/ED50
# Rattus norvegicus [19] = species: Rattus norvegicus; assay: Displacement of [3H]nitrendipine from L-type calcium channel dihydropyridine site in rat cerebral cortex synaptoneurosomes at 100 uM measured after 90 mins by scintillation counting method; format: tissue-based
# Mus musculus [20] = assay: Anticonvulsant activity in albino Swiss mouse assessed as protection against electrically-induced seizure pretreated for 0.5 hrs at 100 mg/kg, ip by 6Hz psychomotor seizure test; format: functional
# Mus musculus [21] = species: Mus musculus; assay: Anticonvulsant activity in albino Swiss mouse assessed as protection against electrically-induced seizure by 6Hz psychomotor seizure test; format: functional
# Rattus norvegicus [22] = species: Rattus norvegicus; assay: Displacement of [3H]nitrendipine from L-type calcium channel dihydropyridine site in rat cerebral cortex synaptoneurosomes at 200 uM measured after 90 mins by scintillation counting method; format: tissue-based
# Mus musculus [23] = assay: Anticonvulsant activity in albino Swiss mouse assessed as protection against maximal electroshock-induced seizures pretreated for 2 hrs at 100 mg/kg, ip by maximal electroshock seizure test; format: functional, organism-based
# Mus musculus [24] = assay: Anticonvulsant activity in albino Swiss mouse assessed as protection against electrically-induced seizure pretreated for 2 hrs at 100 mg/kg, ip by 6Hz psychomotor seizure test; format: functional, organism-based
# Mus musculus [25] = assay: Acute neurotoxicity in albino Swiss mouse pretreated for 0.5 hrs at 100 mg/kg, ip by rotorod test; format: toxicity, organism-based; details: in vivo
# Mus musculus [26] = assay: Acute neurotoxicity in albino Swiss mouse pretreated for 2 hrs at 100 mg/kg, ip by rotorod test; format: toxicity, organism-based; details: in vivo
Structure (SMILES),selectivity ratio [6],Activity (Mus musculus [7]),ED50 (Mus musculus [9]) [mg/kg],ED50 (Mus musculus [14]) [mg/kg],Time (Mus musculus [15]) [h],ED50 (Mus musculus [21]) [mg/kg],Activity (Mus musculus [23]),further results
CC(C(=O)Nc1ccccc1)N1C(=O)CCC1=O (racemic),7.6,50%,96.9,75.4,0.5,44.3,–,inhibition (Rattus norvegicus [1]): -6.5%; TD50 at 2 h [2]: 336 mg/kg; inhibition (Rattus norvegicus [3]): 1.3%; selectivity ratio [4]: 3.5; Activity (Mus musculus [5]): inactive; inhibition (Rattus norvegicus [8]): 26.4%; inhibition (Rattus norvegicus [10]): 10.8%; inhibition (Rattus norvegicus [11]): -3.2%; Activity (Mus musculus [12]): Active; inhibition (Rattus norvegicus [13]): 55.2%; inhibition (Rattus norvegicus [16]): -0.8%; inhibition (Rattus norvegicus [17]): 43.7%; selectivity ratio [18]: 4.4; inhibition (Rattus norvegicus [19]): -7.7%; Activity (Mus musculus [20]): Active; inhibition (Rattus norvegicus [22]): 2.9%
CC(C(=O)Nc1ccc(C(F)(F)F)cc1)N1C(=O)CCC1=O (stereo not given),–,–,–,–,–,–,inactive,–
CC1CC(=O)N(C(C)C(=O)Nc2ccc(F)cc2)C1=O (stereo not given),–,inactive,–,–,–,–,inactive,–
CC(C(=O)Nc1cccc(Cl)c1)N1C(=O)CCC1=O (stereo not given),> 6.7,75%,105,87.7,0.5,74.5,inactive,Activity (Mus musculus [24]): inactive; TD50 at 2 h [2]: > 500 mg/kg; selectivity ratio [4]: > 4.8; Activity (Mus musculus [25]): 50%; Activity (Mus musculus [12]): 75%; selectivity ratio [18]: > 5.7; Activity (Mus musculus [20]): 75%
CCC(C(=O)Nc1ccc(C(F)(F)F)cc1)N1C(=O)CCC1=O (stereo not given),–,inactive,–,–,–,–,inactive,–
COC[C@@H](NC(C)=O)C(=O)NCc1ccccc1 [LACOSAMIDE],5.3,–,9.4,> 500,0.5,6.4,–,–
CC1CC(=O)N(C(C)C(=O)Nc2cccc(C(F)(F)F)c2)C1=O (stereo not given),–,inactive,–,–,–,–,inactive,–
CCCC(CCC)C(=O)O [VALPROIC ACID],–,–,–,–,0.5,–,–,–
CC1CC(=O)N(C(C)C(=O)Nc2ccc(C(F)(F)F)cc2)C1=O (stereo not given),–,inactive,–,–,–,–,inactive,–
CC1CC(=O)N(C(C)C(=O)Nc2ccccc2)C1=O (stereo not given),–,–,–,–,–,–,inactive,–
CCC(C(=O)Nc1cccc(F)c1)N1C(=O)CCC1=O (stereo not given),8.4,75%,121,–,0.5,41.4,inactive,Activity (Mus musculus [24]): inactive; TD50 at 2 h [2]: 346 mg/kg; selectivity ratio [4]: 2.9; Activity (Mus musculus [26]): Non-toxic; Activity (Mus musculus [20]): Active
CCC(C(=O)Nc1cccc(C(F)(F)F)c1)N1C(=O)CCC1=O (stereo not given),–,inactive,–,–,–,–,inactive,–
CCC1(C)CC(=O)NC1=O (stereo not given) [ETHOSUXIMIDE],–,–,> 500,148,0.5,> 200,–,selectivity ratio [18]: 4.9
